Experimental data published in US20100317671A1, “XANTHINE-BASED CYCLIC GMP-ENHANCING RHO-KINASE INHIBITOR INHIBITS PHYSIOLOGICAL ACTIVITIES OF LUNG EPITHELIAL CELL LINE” (KAOHSIUNG MEDICAL UNIVERSITY, priority 2008, published 2010).
Where a name gives a salt, the structure may show the parent alone.

How the values were obtained:
eNOS = assay: Short-term nebulization without OVA sensitization, lung tissue; format: in vivo, mice; conditions: L-NAME-pretreatment 12 mM, 30 mins
Description: (§1) Short-term KMUP-1 (5 mM, 30 min) nebulization and pretreatment with L-NAME (12 mM, […]) are accomplished using a previously described method. Aerosols were generated by ultrasonic nebulizer from day 21 to 27. Mice were sacrificed on day 28. Three different experiments were performed on cohorts of 7-14 mice per experimental condition.
(§2) Please refer to FIGS. 22(B) and 23(B), the changes of eNOS and MMP-9 expression by KMUP-1 (2.5 mM, 30 mins) are reversed by L-NAME-pretreatment (12 mM, 30 mins).

MMP-9 [1] = assay: as above; format: in vivo, mice; conditions: L-NAME-pretreatment 12 mM, 30 mins
Description: as §1, §2

MMP-9 [2] = assay: OVA-induced MMP-9 expression in lung tissue, asthma mice; format: in vivo, BALB/c mice; conditions: OVA + drug 5 mM spray, 30 mins/day, days 21 to 27; lung tissue; OVA + vehicle control 100%
Description: The male BALB/c mice (20-23 g) are injected (i.p.) with OVA (5 mM, 30 mins), sensitized with OVA on day 1 and day 8 via i.p injection and activated by 2 mg aluminum hydroxide to which 2 μg OVA is absorbed. […] The asthmatic animals are divided into 5 groups, wherein the control group is only administered with saline spray and the remaining experimental groups are firstly administered with 1% OVA spray and then administered with the sprays of the related complex salts respectively as shown in Table 4. The inhibition of the expression of OVA-induced MMP-9 in lung tissue of BALB/c mice is measured.

TGF-β = TGF-β expression, bleomycin-induced lung fibrosis (EIA); format: in vivo, mice; conditions: BM 60 mg/kg
Description: The increased amount of the collagen synthesis and the macrophage generation in alveolus may facilitate the formulation of TGF-β, and the expression of TGF-β is deeming as a biomarker of the lung fibrosis. KMUP-1HCl salt (1, 2.5 and 5 mg/kg), the Simvastatin (5 mg/kg), the KMUP-1-nicotinic acid complex (2.5 mg/kg), the KMUP-1-Simvastatinic acid complex (2.5 mg/kg) and KMUP-1-γ-polyglutamic acid complex (2.5 mg/kg) are orally administered to the mice for inhibiting the lung fibrosis induced by TGF-β expression in tracheal lavage solution that resulted from 60 mg/kg BM inhalation (Table 6). The state of the TGF-β expression in the lavage is measured by the enzyme immunoassay (EIA).

[3] = Monocrotaline (MCT)-induced pulmonary arterial hypertension, PABP; format: in vivo, male Wistar rats; conditions: MCT-treated rats; for Pulmonary arterial blood pressure (PABP), in words: 2.5 mg/kg orally every day; for PABP: 2.5 mg/kg/day p.o.
Description: The rats administered MCT (60 mg/kg) are caused pulmonary artery hypertension on day 21 after the intraperitoneal injection. The KMUP-1HCl salt (2.5 mg/kg), Simvastatin (2.5 mg/kg), KMUP-1-nicotinic acid complex (2.5 mg/kg), KMUP-1-citric acid complex (2.5 mg/kg), KMUP-1-Simvastatinic Acid complex (2.5 mg/kg) and KMUP-1-γ-polyglutamic acid complex (2.5 mg/kg) orally administered, or the KMUP-1-PGI2 complex (0.1 mM) inhaled every day may inhibit the pulmonary arterial blood pressure (PABP) in MCT-treated male Wistar rats.

collagen = assay: Collagen amount, bleomycin-induced IPF mice; format: in vivo; conditions: day 28 after BLM
Description: The amount of the collagen in the lung lavage is measured to reflect the fibrosis formation. […] (2) After the lung lavage is obtained, the chest of mice is opened and the lung lobes are cut one by one. […] The 1.5 ml eppendorffs are taken to arrange the calibration curve as follows. […] The eppendorff is then centrifuged at 12,000 rpm for 10 mins. The supernatant in the eppendorff is poured out slowly, 1 ml basic compound is added for dissolving the precipitation. After being violently shaken for 5 mins, the reaction is incubated for 3 hrs to stabilize the color. […] The amount of collagen is estimated through the 540 nm absorption measured by the ELISA reader.

[4] = Body weight change, bleomycin-induced IPF mice; format: in vivo
Description: The six-week old mice are used in this experiment and divided into ten groups as follows. […] The six-week old male C57B1/6 mice are purchased from the National Laboratory Animal Center. […] After being […] pentobarbital in the dose of 0.52 mg/10 g, the mice is kept upright and positioned an otoscope into the larynx for looking into the trachea clearly. The bleomycin is loaded by a loading tip for intratracheal administration.

[5] = test system: inflammatory cells in the lung lavage; assay: Inflammatory cells in lung lavage, bleomycin-induced IPF mice; format: in vivo; parameters: WBC total (white blood cell total count) / NE (neutrophil) / LY (lymphocyte) / MO (monocyte) / EO (eosinophil) / BA (basophil): unit not given here; conditions: lung lavage
Description: The amounts of the total cell, the neutrophill, the lymphocyte, the monocyte, the eosinophill and the basophill are analyzed by an automatic animal blood cell analyzer for evaluating the extent of the inflammation. […] The mice are euthanatized by administering the Urathane in a dose of 37.5 mg/10 g. The larynx is opened, the trachea is picked out, cut and held by a forcepts and a 0.58 mm PE tube is slowly inserted the trachea for infusing 0.5 ml PBS. The PBS is incubated for 15 seconds and then collected after gently massaging the lung tissue. 1 c.c. lung lavage is obtained after the above steps are repeated twice. The lung lavage is collected and transferred into a centrifuged tube for centrifuging at 1,200 rpm at 4° C. for 6 mins. The supernatant is collected and stored at −80° C. for zymography, and the pellet is suspended in PBS for calculating the WBC count. The pellet of the alveolar lavage is suspended in PBS and transferred into an eppendorff. The amount and kind of the inflammatory cell such as WBC total, the lymphocyte, the monocyte, the neutrophil, the eosinophil and the basophil are analyzed by an automatic animal blood cell analyzer.

inflammatory cells = assay: H&E stain of lung tissue sections, bleomycin mice; format: in vivo; conditions: day 28
Excerpt: In the histology observation, the bleomycin-induced mice show the pathology characteristic of lung fibrosis. In the lung tissue sections of the normal control group, the structure of the lung tissue is clear and has no inflammatory cells infiltration, the alveolar wall is complete and not being broaden, the lung atrophy and the vascular wall thickening are not found, and the inflammatory cells infiltration is not found in the bronchial cavity and the alveolar cavity. […] On day 28, the alveolar is dystructured, the macrophage aggregation can be seen in part of aveoli, the fibroblast and fibric cell proliferate, and the fibers are accumulated in the lung interstitium. In the treating group, the inflammatory state is inhibited well on day 7.
The with 10% formalin treated and freezed lung is placed in a tissue dehydrating machine, and the tissue is fixed, dehydrated, washed and rinsed in turn. The tissue is further prepared as a wax-embedded tissue by a tissue embedded machine through appropriate cooling. The wax-embedded tissue is cut by a sliding microtome. The slices about 4 μm are placed on the slides and extended in 35° C.-50° C. warm water, and then dried in a 56° C.-60° C. extender for staining
The slices are successively dehydrated via 50%-99.9% ethanol, incubated in xylene for 2 hrs and the incubation step is repeated twice. […]

## COC(=O)[C@@H](N)CCCNC(=N)N[N+](=O)[O-] [L-NAME, reference compound]
eNOS
  Change of eNOS expression by KMUP-1 (2.5 mM, 30 mins): reversed
MMP-9 [1]
  Change of MMP-9 expression by KMUP-1 (2.5 mM, 30 mins): reversed

## CC(C)(O)c1ccccc1CCC(SCC1(CC(=O)O)CC1)c1cccc(C=Cc2ccc3ccc(Cl)cc3n2)c1.Cn1c(=O)c2c(ncn2CCN2CCN(c3ccccc3Cl)CC2)n(C)c1=O (stereo not drawn) [KMUP-1-Montelukast]
MMP-9 [2]
  Inhibition % of the MMP-9: 70%

## CC(=O)N[C@@H](CS)C(=O)O.Cn1c(=O)c2c(ncn2CCN2CCN(c3ccccc3Cl)CC2)n(C)c1=O [KMUP-1-Acetylcysteine]
MMP-9 [2]
  Inhibition % of the MMP-9: 68%

## Cn1c(=O)c2c(ncn2CCN2CCN(c3ccccc3Cl)CC2)n(C)c1=O.O=C(O)c1cccnc1 [KMUP-1-Nicotinic acid]
TGF-β; drug 2.5 mg/kg oral
  The changing amount of TGF-β in the lung tissue: 42 ± 3.8%
[3]
  Pulmonary arterial blood pressure (PABP), in words: inhibit
  PABP: 12 ± 2.6 mmHg

## CCC(C)(C)C(=O)O[C@H]1C[C@@H](C)C=C2C=C[C@H](C)[C@H](CC[C@@H]3C[C@@H](O)CC(=O)O3)[C@H]21 [Simvastatin, reference compound]
collagen; dose 5 mg/kg
  The amount of collagen: 140.53 ± 0.05 μg/lung
TGF-β; drug 5 mg/kg oral
  The changing amount of TGF-β in the lung tissue: 40 ± 4.3%
[4]; Day 7, dose 5 mg/kg
  Body weight: 17.9 ± 1.56 g
[4]; Day 14, dose 5 mg/kg
  Body weight: 19.8 ± 2.31 g
[4]; Day 28, dose 5 mg/kg
  Body weight: 20.3 ± 1.65 g
[4]; Day −3, dose 5 mg/kg
  Body weight: 23.5 ± 1.32 g
[5]; day 7, dose 5 mg/kg
  BA (basophil): 0.22 ± 0.23
  EO (eosinophil): 0.46 ± 0.4
  LY (lymphocyte): 1.5 ± 2.17
  MO (monocyte): 0.13 ± 0.19
  NE (neutrophil): 0.76 ± 0.53
  WBC total (white blood cell total count): 3.09 ± 2.98
[5]; day 28, dose 5 mg/kg
  BA (basophil): 0.22 ± 0.22
  EO (eosinophil): 0.46 ± 0.35
  LY (lymphocyte): 1.5 ± 3.03
  MO (monocyte): 0.13 ± 0.26
  NE (neutrophil): 0.76 ± 0.61
  WBC total (white blood cell total count): 3.09 ± 0.92

## CC[C@H]1OC(=O)[C@H](C)[C@@H](O[C@H]2C[C@@](C)(OC)[C@@H](O)[C@H](C)O2)[C@H](C)[C@@H](O[C@@H]2O[C@H](C)C[C@H](N(C)C)[C@H]2O)[C@](C)(OC)C[C@@H](C)C(=O)[C@H](C)[C@@H](O)[C@]1(C)O [Clarithromycin, reference compound]
collagen; dose 10 mg/kg
  The amount of collagen: 86.07 ± 0.02 μg/lung
[4]; Day 7, dose 10 mg/kg
  Body weight: 19.93 ± 3.28 g
[4]; Day 14, dose 10 mg/kg
  Body weight: 19.17 ± 3.77 g
[4]; Day 28, dose 10 mg/kg
  Body weight: 24.7 ± 1.21 g
[4]; Day −3, dose 10 mg/kg
  Body weight: 24.6 ± 1.48 g
Inflammatory cells
  Inflammation, H&E stain: still has a significant inflammation phenomenon
[5]; day 7, dose 10 mg/kg
  BA (basophil): 0.02 ± 0.01
  EO (eosinophil): 0.07 ± 0.02
  LY (lymphocyte): 0.56 ± 0.17
  MO (monocyte): 0.05 ± 0.02
  NE (neutrophil): 0.2 ± 0.09
  WBC total (white blood cell total count): 0.89 ± 0.3
[5]; day 28, dose 10 mg/kg
  BA (basophil): 0.25 ± 0.16
  EO (eosinophil): 0.5 ± 0.33
  LY (lymphocyte): 1.64 ± 1.49
  MO (monocyte): 0.16 ± 0.16
  NE (neutrophil): 0.68 ± 0.57
  WBC total (white blood cell total count): 3.23 ± 0.52

## Cn1c(=O)c2c(ncn2CCN2CCN(c3ccccc3Cl)CC2)n(C)c1=O [KMUP-1 HCl salt]
TGF-β; drug 2.5 mg/kg oral
  The changing amount of TGF-β in the lung tissue: 52 ± 5.2%
[3]
  Pulmonary arterial blood pressure (PABP), in words: inhibit
  PABP: 13 ± 1.7 mmHg
MMP-9 [2]
  Inhibition % of the MMP-9: 55%

## Cn1c(=O)c2c(ncn2CCN2CCN(c3ccccc3Cl)CC2)n(C)c1=O.N=C(N)NCCCC(N)C(=O)O [KMUP-1-Arginine]
MMP-9 [2]
  Inhibition % of the MMP-9: 65%
